Test results published in US20240391931A1 (Bristol-Myers Squibb Company, priority 2021, published 2024).
pEC50: −log10 of the molar value.

Molecular target: EGFR (Homo sapiens, UniProt P00533)
Assay: EGFR signaling (pEGFR Tyr1068/total EGFR MSD) in A431 cells
Type: cell-based
Parameters: endogenous in cells; host or cells: A431, N87
Details: for pEC50: A431 cells, read-out: A431 pEGFR EC50; for Selectivity A431 EC50/BT474 EC50: ratio A431 pEGFR EC50 to BT474 pHER2 EC50; for Selectivity A431 EC50/HEKYVMA EC50: ratio A431 pEGFR EC50 to HEK YVMA pHER2 EC50
Experimental: In addition to the engineered cell lines, the following cell lines were used: BT474 (human breast carcinoma), N87 (human gastric carcinoma), NCI-H1781 (human lung adenocarcinoma), and A431 (human epidermoid carcinoma); all cell lines were obtained from the American Type Culture Collection (ATCC, Manassas, VA). NCI-H1781 were grown in complete RPMI 1640 (Life Technologies, Carlsbad, CA) supplemented with 15% fetal bovine serum (FBS, Life Technologies, Carlsbad, CA) and 1% Penicillin-Streptomycin (P/S, Life Technologies, Carlsbad, CA). N87 cells were grown in complete RPMI 1640 supplemented with 10% FBS and 1% P/S. BT474 and A431 cells were grown in DMEM (Life Technologies, Carlsbad, CA) supplemented with 10% FBS and 1% P/S. All cells were maintained and propagated in a humidified 5% CO2 incubator at 37° C.
A431 Cells were plated in 96-well tissue-culture treated plates in full media for 6 h, then starved with media containing 0.1% FBS for overnight. Media was replaced with low serum media (1% FBS) containing compound at 10, 3.3, 1.1, 0.37, 0.12, 0.041, 0.014, 0.005 μM or DMSO control (0.1%). Cells were incubated for 1.5 hr, then stimulated with 100 ng/mL human EGF (PeproTech, Rocky Hill, NJ) for 10 minutes. Cells were washed with cold PBS, and lysed for 30 min on ice in complete MSD lysis buffer (prepared as described in HER2 Signaling Method); lysates were stored at −70° C. until further analysis. EGFR signaling was evaluated using phospho (Tyr 1068)/total EGFR whole cell lysate kit (Meso-Scale Discovery, Gaithersburg, MD). The phospho EGFR signal was normalized to total EGFR for each sample; results are reported as % DMSO control. The normalized data was fitted using a sigmoidal curve analysis program (Graph Pad Prism version 6) with variable Hill slope to determine EC50 values. The results are provided in Table 4, under column titled “A431-pEGFR EC50”.

Chain of EGFR (P00533 25-1210): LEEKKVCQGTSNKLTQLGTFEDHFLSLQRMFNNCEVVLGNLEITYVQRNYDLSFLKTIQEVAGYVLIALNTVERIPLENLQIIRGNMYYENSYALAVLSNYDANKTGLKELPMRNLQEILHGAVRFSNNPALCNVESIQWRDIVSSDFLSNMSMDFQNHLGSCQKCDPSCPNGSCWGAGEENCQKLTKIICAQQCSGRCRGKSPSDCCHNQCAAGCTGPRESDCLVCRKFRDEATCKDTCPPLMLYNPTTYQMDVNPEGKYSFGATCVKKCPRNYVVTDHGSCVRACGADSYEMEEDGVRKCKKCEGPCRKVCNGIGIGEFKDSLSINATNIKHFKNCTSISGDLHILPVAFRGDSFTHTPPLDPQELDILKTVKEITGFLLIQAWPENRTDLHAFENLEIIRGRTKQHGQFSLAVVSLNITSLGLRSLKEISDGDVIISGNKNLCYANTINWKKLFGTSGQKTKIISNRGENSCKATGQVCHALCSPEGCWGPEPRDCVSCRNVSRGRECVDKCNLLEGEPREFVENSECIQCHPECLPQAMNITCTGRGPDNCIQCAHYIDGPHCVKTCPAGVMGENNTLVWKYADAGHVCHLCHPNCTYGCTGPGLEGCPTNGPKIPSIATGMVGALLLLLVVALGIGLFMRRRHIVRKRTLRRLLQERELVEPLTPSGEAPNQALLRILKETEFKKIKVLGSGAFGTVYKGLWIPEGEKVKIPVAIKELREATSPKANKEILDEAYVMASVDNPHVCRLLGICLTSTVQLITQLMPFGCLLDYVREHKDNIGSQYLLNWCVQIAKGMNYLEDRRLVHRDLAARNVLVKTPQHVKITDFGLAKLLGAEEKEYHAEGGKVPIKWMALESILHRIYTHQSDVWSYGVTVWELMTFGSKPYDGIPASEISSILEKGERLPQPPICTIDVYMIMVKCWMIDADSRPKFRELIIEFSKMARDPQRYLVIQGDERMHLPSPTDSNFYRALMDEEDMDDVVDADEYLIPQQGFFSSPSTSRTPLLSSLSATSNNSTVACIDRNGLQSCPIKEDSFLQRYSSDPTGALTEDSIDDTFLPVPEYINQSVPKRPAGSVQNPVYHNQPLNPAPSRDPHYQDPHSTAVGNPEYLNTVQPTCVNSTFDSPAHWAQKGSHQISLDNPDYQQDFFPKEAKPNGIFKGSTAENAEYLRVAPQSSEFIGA

Compound | pEC50 | Selectivity A431 EC50/BT474 EC50 | Selectivity A431 EC50/HEKYVMA EC50
Cc1ccc(Oc2ccc(Nc3ncnc4sc5c(c34)CCN(C(=O)/C=C/CN3CCCC34CCC4)C5)cc2C)cn1 [Compound 115] | 6.00 to 7.00 | C (C: ≥ 10 and < 20) | D (D: ≥ 5 and < 10)
Cc1ccc(Oc2ccc(Nc3ncnc4sc5c(c34)CCN(C(=O)/C=C/CN3CC(C)OC(C)C3C)C5)cc2C)cn1 (stereo not drawn) [Compound 117] | 6.00 to 7.00 | B (B: ≥ 20 and < 100) | B (B: ≥ 20 and < 100)
Cc1ccc(Oc2ccc(Nc3ncnc4sc5c(c34)CCN(C(=O)/C=C/CN3CCCCC3(C)CO)C5)cc2C)cn1 (stereo not drawn) [Compound 119] | 6.00 to 7.00 | B (B: ≥ 20 and < 100) | B (B: ≥ 20 and < 100)
Cc1ccc(Oc2ccc(Nc3ncnc4sc5c(c34)CCN(C(=O)/C=C/CN3C[C@H]4C[C@@H]3CC4C#N)C5)cc2C)cn1 (stereo partly drawn) [Compound 120] | 6.00 to 7.00 | B (B: ≥ 20 and < 100) | B (B: ≥ 20 and < 100)
Cc1ccc(Oc2ccc(Nc3ncnc4sc5c(c34)CCN(C(=O)/C=C/CN3CC(C)(C)OC(C)(C)C3)C5)cc2C)cn1 [Compound 121] | 5.00 to 6.00 | B (B: ≥ 20 and < 100) | C (C: ≥ 10 and < 20)
CC[C@H](NC/C=C/C(=O)N1CCc2c(sc3ncnc(Nc4ccc(Oc5ccc(C)nc5)c(C)c4)c23)C1)C(F)(F)F [Compound 122] | 6.00 to 7.00 | B (B: ≥ 20 and < 100) | B (B: ≥ 20 and < 100)
Cc1ccc(Oc2ccc(Nc3ncnc4sc5c(c34)CCN(C(=O)/C=C/CN3CC4(CCCC4)C3)C5)cc2C)cn1 [Compound 123] | 6.00 to 7.00 | C (C: ≥ 10 and < 20) | D (D: ≥ 5 and < 10)
CCN(CC)C/C=C/C(=O)N1CCc2c(sc3ncnc(Nc4ccc(Oc5ccc(C)nc5)c(C)c4)c23)C1 [Compound 131] | > 7.00 | C (C: ≥ 10 and < 20) | D (D: ≥ 5 and < 10)
Cc1ccc(Oc2ccc(Nc3ncnc4sc5c(c34)CCN(C(=O)/C=C/CN3CC[C@@H](CO)C3)C5)cc2C)cn1 [Compound 132] | 6.00 to 7.00 | B (B: ≥ 20 and < 100) | C (C: ≥ 10 and < 20)
Cc1ccc(Oc2ccc(Nc3ncnc4sc5c(c34)CCN(C(=O)/C=C/CN3CC[C@H](CO)C3)C5)cc2C)cn1 [Compound 133] | 6.00 to 7.00 | B (B: ≥ 20 and < 100) | C (C: ≥ 10 and < 20)
Cc1ccc(Oc2ccc(Nc3ncnc4sc5c(c34)CCN(C(=O)/C=C/CN3CC(CO)(CO)C3)C5)cc2C)cn1 [Compound 134] | 5.00 to 6.00 | B (B: ≥ 20 and < 100) | B (B: ≥ 20 and < 100)
Cc1ccc(Oc2ccc(Nc3ncnc4sc5c(c34)CCN(C(=O)/C=C/CN3CCC(CO)(CO)CC3)C5)cc2C)cn1 [Compound 135] | 5.00 to 6.00 | B (B: ≥ 20 and < 100) | D (D: ≥ 5 and < 10)
Cc1ccc(Oc2ccc(Nc3ncnc4sc5c(c34)CCN(C(=O)/C=C/CN3CCO[C@H](CO)C3)C5)cc2C)cn1 [Compound 136] | 6.00 to 7.00 | B (B: ≥ 20 and < 100) | C (C: ≥ 10 and < 20)
CCN(CC)C/C=C/C(=O)N1CCc2c(sc3ncnc(Nc4ccc(Oc5ccc(OC)nc5)c(C)c4)c23)C1 [Compound 137] | 6.00 to 7.00 | D (D: ≥ 5 and < 10) | D (D: ≥ 5 and < 10)
Cc1cc(Nc2ncnc3sc4c(c23)CCN(C(=O)/C=C/CN(C)C)C4)ccc1Oc1ccn2ncnc2c1 [Compound 138, (E)-1-(4-((4-([1,2,4]triazolo[1,5-a]pyridin-7-yloxy)-3-methylphenyl)amino)-5,8-dihydropyrido[4′,3′:4,5]thieno[2,3-d]pyrimidin-7(6H)-yl)-4-(dimethylamino)but-2-en-1-one] | 6.00 to 7.00 | B (B: ≥ 20 and < 100) | A (A: ≥100)
C#CCOCCN(C)C/C=C/C(=O)N1CCc2c(sc3ncnc(Nc4ccc(Oc5ccc(C)nc5)c(C)c4)c23)C1 [Compound 139] | > 7.00 | B (B: ≥ 20 and < 100) | B (B: ≥ 20 and < 100)
COc1ccc(Oc2ccc(Nc3ncnc4sc5c(c34)CCN(C(=O)/C=C/CN3CC[C@H](CO)C3)C5)cc2C)cn1 [Compound 140] | 6.00 to 7.00 | B (B: ≥ 20 and < 100) | C (C: ≥ 10 and < 20)
Cc1ccc(Oc2ccc(Nc3ncnc4sc5c(c34)C(C)N(C(=O)/C=C/CN(C)C)C5)cc2C)cn1 (stereo not drawn) [Compound 141, (E)-4-(dimethylamino)-1-(5-methyl-4-((3-methyl-4-((6-methylpyridin-3-yl)oxy)phenyl)amino)-5,7-dihydro-6H-pyrrolo[3′,4′:4,5]thieno[2,3-d]pyrimidin-6-yl)but-2-en-1-one] | 6.00 to 7.00 | B (B: ≥ 20 and < 100) | B (B: ≥ 20 and < 100)
C=CC(=O)N1Cc2sc3ncnc(Nc4ccc(Oc5ccc(C)nc5)c(C)c4)c3c2C(C)C1 (stereo not drawn) [Compound 142, 1-(5-methyl-4-((3-methyl-4-((6-methylpyridin-3-yl)oxy)phenyl)amino)-5,6-dihydropyrido[4′,3′:4,5]thieno[2,3-d]pyrimidin-7(8H)-yl)prop-2-en-1-one] | 6.00 to 7.00 | B (B: ≥ 20 and < 100) | B (B: ≥ 20 and < 100)
COc1ccc(Oc2ccc(Nc3ncnc4sc5c(c34)CCN(C(=O)/C=C/CN3CC[C@@H](CO)C3)C5)cc2C)cn1 [Compound 143] | > 7.00 | C (C: ≥ 10 and < 20) | E (E: >1 and < 5)
Cc1ccc(Oc2ccc(Nc3ncnc4sc5c(c34)CCN(C(=O)/C=C/CN3CCO[C@@H](CO)C3)C5)cc2C)cn1 [Compound 144] | 6.00 to 7.00 | B (B: ≥ 20 and < 100) | D (D: ≥ 5 and < 10)
Cc1ccc(Oc2ccc(Nc3ncnc4sc5c(c34)CCN(C(=O)/C=C/CN3CCCC(F)(CO)C3)C5)cc2C)cn1 (stereo not drawn) [Compound 150] | 6.00 to 7.00 | B (B: ≥ 20 and < 100) | E (E: >1 and < 5)
Cc1ccc(Oc2ccc(Nc3ncnc4sc5c(c34)CCN(C(=O)/C=C/CN3CC(F)(CO)C3)C5)cc2C)cn1 [Compound 151] | 6.00 to 7.00 | B (B: ≥ 20 and < 100) | E (E: >1 and < 5)
Cc1ccc(Oc2ccc(Nc3ncnc4sc5c(c34)CN(C(=O)/C=C/CN(C)C)C5C)cc2C)cn1 (stereo not drawn) [Compound 153, (E)-4-(dimethylamino)-1-(7-methyl-4-((3-methyl-4-((6-methylpyridin-3-yl)oxy)phenyl)amino)-5,7-dihydro-6H-pyrrolo[3′,4′:4,5]thieno[2,3-d]pyrimidin-6-yl)but-2-en-1-one] | 6.00 to 7.00 | B (B: ≥ 20 and < 100) | C (C: ≥ 10 and < 20)
Cc1ccc(Oc2ccc(Nc3ncnc4sc5c(c34)CCN(C(=O)/C=C/CN3CCC[C@@H](CO)C3)C5)cc2C)cn1 [Compound 154] | > 7.00 | C (C: ≥ 10 and < 20) | E (E: >1 and < 5)
Cc1ccc(Oc2ccc(Nc3ncnc4sc5c(c34)CCN(C(=O)/C=C/CN3CCC[C@H](CO)C3)C5)cc2C)cn1 [Compound 155] | > 7.00 | B (B: ≥ 20 and < 100) | E (E: >1 and < 5)
COc1ccc(Oc2ccc(Nc3ncnc4sc5c(c34)CCN(C(=O)/C=C/CN(C)C(C)(C)C)C5)cc2C)cn1 [Compound 163] | > 7.00 | D (D: ≥ 5 and < 10) | E (E: >1 and < 5)
Cc1ccc(Oc2ccc(Nc3ncnc4sc5c(c34)CCN(C(=O)/C=C/CN(C)C)CC5)cc2Cl)cn1 [Compound 167, (E)-1-(4-((3-Chloro-4-((6-methylpyridin-3-yl)oxy)phenyl)amino)-8,9-dihydro-5H-pyrimido[5′,4′:4,5]thieno[2,3-d]azepin-7(6H)-yl)-4-(dimethylamino)but-2-en-1-one] | 6.00 to 7.00 | B (B: ≥ 20 and < 100) | E (E: >1 and < 5)
